Data from patent publication US20240309016A1, “MACROCYCLIC HETEROCYCLE COMPOUNDS AND USE THEREOF” (TAKEDA PHARMACEUTICAL COMPANY LIMITED, priority 2023, published 2024).

Target: T1, human OX2 receptor (Homo sapiens, UniProt O43614)
T1 construct: expressed in transfected cells
T1 sequence (O43614 1-444): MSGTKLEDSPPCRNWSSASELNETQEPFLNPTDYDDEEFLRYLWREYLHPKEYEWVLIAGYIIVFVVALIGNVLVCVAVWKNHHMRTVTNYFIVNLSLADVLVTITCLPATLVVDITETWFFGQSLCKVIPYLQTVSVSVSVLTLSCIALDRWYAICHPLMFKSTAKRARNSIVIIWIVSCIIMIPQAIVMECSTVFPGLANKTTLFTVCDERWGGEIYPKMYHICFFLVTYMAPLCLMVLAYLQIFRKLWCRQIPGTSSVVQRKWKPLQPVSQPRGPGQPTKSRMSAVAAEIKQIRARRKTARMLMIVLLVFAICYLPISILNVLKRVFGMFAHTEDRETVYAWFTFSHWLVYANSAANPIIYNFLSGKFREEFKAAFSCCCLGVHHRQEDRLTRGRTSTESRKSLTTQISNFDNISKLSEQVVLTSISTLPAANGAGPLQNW
Test: Measurement of orexin type 2 receptor agonist activity (Experimental Example 2; Fluo-4 AM calcium fluorescence, FDSS μCELL)
Assay type: cell-based
Conditions: compound at 3 μM; CHO cells expressing human OX2 receptor; DMSO = 0%, 10 nM orexin A (human) = 100%
Method in brief: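 Agonism was tested in CHO-K1 cells stably expressing human OX2 receptor (residues 1-444), loaded with Fluo-4 AM plus probenecid. Calcium fluorescence was recorded for 1 min 40 s after compound addition. Activity (%) was scaled between DMSO (0%) and 10 nM orexin A (100%) and reported at 3 μM compound.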

Compound | OX2R agonist activity (3 μM, %)
N-[(15aS,16R)-17,17- difluoro-7-methyl-1-oxo- 2,3,15a,16,17,18-hexahydro- 1H,15H-4,8-(azeno)-10,14- (metheno)pyrrolo[1,2- j][1,8,10]oxadiazacyclo- heptadecin-16- yl]ethanesulfonamide [Example 6] | 99%
CCS(=O)(=O)N[C@@H]1[C@@H]2Cc3cccc(c3F)Oc3nc(ccc3C)N(C)CC(=O)N2CC1(F)F [Example 48, N-[(15aS,16R)-17,17,20-trifluoro-3,7-dimethyl-1-oxo-2,3,15a,16,17,18-hexahydro-1H,15H-4,8-(azeno)-14,10-(metheno)pyrrolo[1,2-j][1,7,10]oxadiazacyclo-heptadecin-16-yl]ethanesulfonamide] | 67%
CN(C)S(=O)(=O)N[C@@H]1[C@@H]2Cc3cccc(c3F)Oc3nc(ccc3Cl)CNC(=O)N2CC1(F)F [Example 13, N′-[(15aS,16R)-7-chloro-17,17,20-trifluoro-1-oxo-2,3,15a,16,17,18-hexahydro-1H,15H-4,8-(azeno)-14,10-(metheno)pyrrolo[1,2-j][1,8,10]oxadiazacyclo-heptadecin-16-yl]-N,N-dimethylsulfuric diamide] | 99%
Cc1ncc2nc1Oc1cccc(c1F)C[C@H]1[C@@H](NS(C)(=O)=O)C(F)(F)CN1C(=O)CO2 [Example 65, N-[(15aS,16R)-17,17,20-trifluoro-7-methyl-1-oxo-1,2,15a,16,17,18-hexahydro-15H-4,8-(azeno)-10,14-(metheno)pyrrolo[1,2-j][1,7,4,10]dioxadiazacyclo-heptadecin-16-yl]methanesulfonamide] | 102%
CNS(=O)(=O)N[C@@H]1[C@@H]2Cc3cccc(c3F)Oc3nc(ccc3Cl)OCC(=O)N2CC1(F)F [Example 63, N-[(15aS,16R)-7-chloro-17,17,20-trifluoro-1-oxo-1,2,15a,16,17,18-hexahydro-15H-4,8-(azeno)-10,14-(metheno)pyrrolo[1,2-d][1,12,4]dioxazacyclo-heptadecin-16-yl]-N′-methylsulfuric diamide] | 106%
CCS(=O)(=O)N[C@H]1[C@@H](F)CN2C(=O)COc3ccc(C(F)F)c(n3)Oc3cccc(c3)C[C@@H]12 [Example 87, N-[(15aS,16R,17S)-7-(difluoromethyl)-17-fluoro-1-oxo-1,2,15a,16,17,18-hexahydro-15H-4,8-(azeno)-14,10-(metheno)pyrrolo[1,2-d][1,12,4]dioxazacyclo-heptadecin-16-yl]ethanesulfonamide] | 105%
Cc1cnc2nc1Oc1cccc(c1F)C[C@H]1[C@@H](NS(C)(=O)=O)C(F)(F)CN1C(=O)CO2 [Example 77, N-[(15aS,16R)-17,17,20-trifluoro-7-methyl-1-oxo-1,2,15a,16,17,18-hexahydro-15H-4,8-(azeno)-10,14-(metheno)pyrrolo[2,1-n][1,7,3,15]dioxadiazacyclo-heptadecin-16-yl]methanesulfonamide] | 104%
CCS(=O)(=O)N[C@H]1[C@@H](F)CN2C(=O)COc3ccc(Cl)c(n3)Oc3cccc(c3)C[C@@H]12 [Example 69, N-[(15aS,16R,17S)-7-chloro-17-fluoro-1-oxo-1,2,15a,16,17,18-hexahydro-15H-4,8-(azeno)-14,10-(metheno)pyrrolo[1,2-d][1,12,4]dioxazacyclo-heptadecin-16-yl]ethanesulfonamide] | 101%
CCS(=O)(=O)N[C@@H]1[C@@H]2Cc3cccc(c3F)Oc3nc(ccc3OC)CNC(=O)N2CC1(F)F [Example 26, N-[(15aS,16R)-17,17,20-trifluoro-7-methoxy-1-oxo-2,3,15a,16,17,18-hexahydro-1H,15H-4,8-(azeno)-10,14-(metheno)pyrrolo[1,2-j][1,8,10]oxadiazacyclo-heptadecin-16-yl]ethanesulfonamide] | 102%
CS(=O)(=O)N[C@H]1[C@@H](F)CN2C(=O)NCc3ccc(C(F)F)c(n3)Oc3cccc(c3F)C[C@@H]12 [Example 18, N-[(15aS,16R,17S)-7-(difluoromethyl)-17,20-difluoro-1-oxo-2,3,15a,16,17,18-hexahydro-1H,15H-8,4-(azeno)-10,14-(metheno)pyrrolo[1,2-j][1,8,10]oxadiazacyclo-heptadecin-16-yl]methanesulfonamide] | 104%
CCS(=O)(=O)N[C@H]1[C@@H](F)CN2C(=O)N(C)Cc3ccc(Cl)c(n3)Oc3cccc(c3F)C[C@@H]12 [Example 73, N-[(15aS,16R,17S)-7-chloro-17,20-difluoro-2-methyl-1-oxo-2,3,15a,16,17,18-hexahydro-1H,15H-4,8-(azeno)-10,14-(metheno)pyrrolo[1,2-j][1,8,10]oxadiazacyclo-heptadecin-16-yl]ethanesulfonamide] | 101%
CCS(=O)(=O)N[C@H]1[C@@H](F)CN2C(=O)COc3ccc(Cl)c(n3)Oc3cccc(c3F)C[C@@H]12 [Example 80, N-[(15aS,16R,17S)-7-chloro-17,20-difluoro-1-oxo-1,2,15a,16,17,18-hexahydro-15H-4,8-(azeno)-14,10-(metheno)pyrrolo[1,2-d][1,12,4]dioxazacyclo-heptadecin-16-yl]ethanesulfonamide] | 100%
CCS(=O)(=O)N[C@H]1[C@@H](F)CN2C(=O)COc3ccc(Br)c(n3)Oc3cccc(c3)C[C@@H]12 [Example 76, N-[(15aS,16R,17S)-7-bromo-17-fluoro-1-oxo-1,2,15a,16,17,18-hexahydro-15H-4,8-(azeno)-14,10-(metheno)pyrrolo[1,2-d][1,12,4]dioxazacyclo-heptadecin-16-yl]ethanesulfonamide] | 96%
CN1Cc2ccc(Cl)c(n2)Oc2cccc(c2F)C[C@H]2[C@@H](NS(C)(=O)=O)C(F)(F)CN2C1=O [Example 57, N-[(15aS,16R)-7-chloro-17,17,20-trifluoro-2-methyl-1-oxo-2,3,15a,16,17,18-hexahydro-1H,15H-4,8-(azeno)-14,10-(metheno)pyrrolo[1,2-j][1,8,10]oxadiazacyclo-heptadecin-16-yl]methanesulfonamide] | 108%
CCS(=O)(=O)N[C@H]1[C@@H](F)CN2C(=O)COc3ccc(Cl)c(n3)Cc3cccc(c3F)C[C@@H]12 [Example 72, N-[(15aS,16R,17S)-7-chloro-17,20-difluoro-1-oxo-1,2,15a,16,17,18-hexahydro-9H,15H-4,8-(azeno)-14,10-(metheno)pyrrolo[1,2-d][1,4]oxazacycloheptadecin-16-yl]ethanesulfonamide] | 104%
Cc1cnc2nc1Oc1cccc(c1F)C[C@H]1[C@@H](NS(C)(=O)=O)C(F)(F)CN1C(=O)[C@@H]1C[C@@H](F)CN21 [Example 74, N-[(2R,16aS,17R,21aS)-2,18,18,22-tetrafluoro-8-methyl-21-oxo-2,3,16a,17,18,19,21,21a-octahydro-1H,16H-5,9-(azeno)-11,15-(metheno)dipyrrolo[1,2-g:1′,2′-j][1,5,7,10]oxatriazacyclo-heptadecin-17-yl]methanesulfonamide] | 96%
Cc1ccc2nc1OCc1cccc(c1F)C[C@H]1[C@@H](NS(C)(=O)=O)C(F)(F)CN1C(=O)NC2 [Example 84, N-[(16aS,17R)-18,18,21-trifluoro-7-methyl-1-oxo-2,3,16a,17,18,19-hexahydro-1H,10H,16H-4,8-(azeno)-15,11-(metheno)pyrrolo[1,2-j][1,8,10]oxadiazacyclo-octadecin-17-yl]methanesulfonamide] | 104%
CS(=O)(=O)N[C@H]1CCN2C(=O)NCc3ccc(Cl)c(n3)Oc3cccc(c3)C[C@@H]12 [Example 16, N-[(15aS,16S)-7-chloro-1-oxo-2,3,15a,16,17,18-hexahydro-1H,15H-4,8-(azeno)-10,14-(metheno)pyrrolo[1,2-j][1,8,10]oxadiazacyclo-heptadecin-16-yl]methanesulfonamide] | 99%
CCS(=O)(=O)N[C@@H]1[C@@H]2Cc3cccc(c3F)Oc3nc(cnc3C)CCC(=O)N2CC1(F)F [Example 61, N-[(1R,19aS)-2,2,20-trifluoro-11-methyl-5-oxo-2,3,6,7,19,19a-hexahydro-1H,5H-8,12-(azeno)-18,14-(metheno)pyrrolo[1,2-j][1,4,10]oxadiazacyclo-heptadecin-1-yl]ethanesulfonamide] | 106%
CS(=O)(=O)N[C@@H]1[C@@H]2Cc3cccc(c3)Oc3nc(ccc3C(F)F)CNC(=O)N2CC1(F)F [Example 93, N-[(15aS,16R)-7-(difluoromethyl)-17,17-difluoro-1-oxo-2,3,15a,16,17,18-hexahydro-1H,15H-4,8-(azeno)-14,10-(metheno)pyrrolo[1,2-j][1,8,10]oxadiazacyclohepta-decin-16-yl]methanesulfonamide] | 109%
O=C1NCc2nc(c(Cl)cc2F)Oc2cccc(c2F)C[C@H]2[C@@H](NS(=O)(=O)C3CC3)C(F)(F)CN12 [Example 58, N-[(15aS,16R)-7-chloro-5,17,17,20-tetrafluoro-1-oxo-2,3,15a,16,17,18-hexahydro-1H,15H-4,8-(azeno)-14,10-(metheno)pyrrolo[1,2-j][1,8,10]oxadiazacyclo-heptadecin-16-yl]cyclopropanesulfonamide] | 106%
